This is an account of results in patent publication US12171229B2, “Heteroaryl-triazole and heteroaryl-tetrazole compounds as pesticides” (BAYER AKTIENGESELLSCHAFT, priority 2018, dated 2024).

Holding throughout (type): in vivo
The test system of one assay is Diabrotica balteata. In words: Diabrotica balteata spray test. The following applies: Diabrotica balteata, in Triticum aestivum, 168 h, after 7 days, larvae on wheat seeds, read-out: efficacy (seedlings grown up); for pest or weed control at 80 µg/disc, 250 g/ha: 80 μg/well (=250 g/ha); for pest or weed control at 160 µg/disc, 500 g/ha: 160 μg/well (=500 g/ha). An outline of the steps: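 Germinated wheat seeds (5 per well, 1 day on agar) sprayed with compound diluted in water containing 1000 ppm emulsifier, then infested with 10–20 D. balteata larvae. Efficacy scored after 7 days: 100% = seedlings like untreated uninfested control, 0% = no seedlings grown.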

Assay [1] deals with Ctenocephalides felis. Nature of the assay: Ctenocephalides felis oral test. The note with it: 48 h, 100 ppm in cattle blood, after 2 days, adult unfed cat fleas. The gist of the method: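 About 20 unfed adult cat fleas feed through parafilm on cattle blood dosed with compound from a DMSO stock. Blood chamber at 37° C, fleas at room temperature. Percent mortality scored after 2 days.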

The next assay has as its system Spodoptera frugiperda. Nature of the assay: Spodoptera frugiperda spray test. The following applies: 168 h, after 7 days, larvae on maize leaf sections. An outline of the steps:
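Maize leaf sections were sprayed with compound formulated in solvent and diluted in water containing 1000 ppm emulsifier, then infested with fall armyworm larvae after drying. Percent mortality was scored after 7 days (100% = all caterpillars dead, 0% = none).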

The test system of assay [2] is Ctenocephalides felis. Nature of the assay: Ctenocephalides felis in-vitro contact test, adult cat flea. The note with it: 5 μg/cm^2 (=500 g/ha), after 48 hours, adult cat fleas, read-out: efficacy (fleas dead or moribund). The method, then: Ctenocephalides Felis—In-Vitro Contact Tests Adult Cat Flea 9 mg compound is solved in 1 ml acetone and diluted with acetone to the desired concentration. 250 μl of the test solution is filled in 25 ml glass test tubes and homogeneously distributed on the inner walls by rotation and tilting on a shaking device (2 h at 30 rpm). With a compound concentration of 900 ppm, an inner surface of 44.7 cm^2 and a homogeneous distribution, a dose of 5 μg/cm^2 is achieved. After the solvent has evaporated, each test tube is filled with 5-10 adult cat fleas (Ctenocephalides felis), closed with a perforated lid and incubated in a lying position at room temperature and relative humidity. After 48 hours efficacy is determined. The fleas are patted on the ground of the tubes and are incubated on a heating plate at 45-50° C. for at most 5 minutes. Immotile or uncoordinated moving fleas, which are not able to escape the heat by climbing upwards, are marked as dead or moribund. […] An efficacy of 100% means all fleas are dead or moribund; 0% means no fleas are dead or moribund.

Assay [3] concerns Aedes aegypti strain MONHEIM. Nature of the assay: Aedes aegypti test (AEDSAE surface treatment & contact assay). The note with it: surface concentration 20 mg/m^2, exposure 30 minutes, 24 hours after contact, read-out: efficacy (mortality). The method, then:
Aedes Aegypti Test (AEDSAE Surface Treatment & Contact Assay)
(§1) Solvent: Aceton+2000 ppm rapeseed oil methyl ester (RME)
In order to produce a sufficient, active ingredient containing solution it is necessary to solve the test compound in the solvent-mix (acetone at 2 mg/ml/RME 2000 ppm). This solution is pipetted onto a glazed tile and after evaporation of the acetone, adult mosquitoes of the species Aedes aegypti strain MONHEIM are placed onto the dried surface. The exposure time is 30 minutes.
(§2) Mortality in percent (%) is determined 24 hours after contact of the insects to the treated surface. 100% mortality means that all tested insects are dead, whereas 0% means that no insect died.

The test system of assay [4] is Culex quinquefasciatus strain P00. Nature of the assay: Culex quinquefasciatus test (CULXFA surface treatment & contact assay). The following applies: surface concentration 4 mg/m^2, exposure 30 minutes, 24 hours after contact, read-out: efficacy (mortality). The method, then:
Culex Quinquefasciatus Test (CULXFA Surface Treatment & Contact Assay)
as §1
In order to produce a sufficient, active ingredient containing solution it is necessary to solve the test compound in the solvent-mix (acetone at 2 mg/ml/RME 2000 ppm). This solution is pipetted onto a glazed tile and after evaporation of the acetone, adult mosquitoes of the species Culex quinquefasciatus strain P00 are placed onto the dried surface. The exposure time is 30 minutes.
as §2

For the next assay, the system named is Boophilus microplus. Nature of the assay: Boophilus microplus injection test. The note with it: Rhipicephalus microplus, 168 h; 20 μg/animal injected into the abdomen; adult engorged female ticks; egg deposition after 7 days; read-out: efficacy (infertile eggs). The gist of the method: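 Five engorged adult female ticks received a 1 μl abdominal injection of compound in DMSO. They were then held in a climate chamber, with egg deposition checked after 7 days. Unclear eggs were kept until hatching at about 42 days, and efficacy was scored as the percentage of infertile eggs.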

A further assay deals with Nezara viridula. Nature of the assay: Nezara viridula spray test. The note with it: 96 h, after 4 days, larvae on barley plants. The gist of the method:
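Barley plants infested with Nezara viridula larvae were sprayed with compound diluted in water containing 1000 ppm emulsifier. Percent mortality was scored 4 days later, where 100% means all bugs killed and 0% none.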

The subject of assay [5] is Myzus persicae. Nature of the assay: Myzus persicae oral test. The following applies: 120 h, 4 ppm, after 5 days. Here is the method: Solvent: 100 parts by weight acetone
To produce a suitable preparation of active compound, 1 part by weight of active compound is mixed with the stated amount of solvent, and the concentrate is diluted with water to the desired concentration.
50 μl compound solution is filled in microtiter plates and 150 μl IPL41 insect medium (33%+15% sugar) is added to obtain a total volume of 200 μl per well. Afterwards the plates are sealed with parafilm through which a mixed population of the green peach aphid (Myzus persicae) can suck on the compound preparation.
(§3) After 5 days mortality in % is determined. 100% means all aphids have been killed and 0% means none of the aphids have been killed.

Assay [6] has as its system Myzus persicae. Nature of the assay: Myzus persicae spray test. The following applies: foliar, 120 h, after 5 days, Chinese cabbage leaf disks. Here is the method:
Myzus persicae—Spray Test
To produce a suitable preparation of active compound, 1 part by weight of active compound is mixed with the stated amount of solvents and is diluted with water, containing an emulsifier concentration of 1000 ppm, to the desired concentration. Further test concentrations are prepared by dilution with emulsifier containing water.
Chinese cabbage (Brassica pekinensis) leaf disks infected with all instars of the green peach aphid (Myzus persicae), are sprayed with a preparation of the active ingredient of the desired concentration.
as §3

On to `C[C@H](NC(=O)c1cc(Cl)cc(C(F)(F)F)c1)c1ncnn1-c1ncc(Br)s1` [Example I-083, N-{(1S)-1-[1-(5-bromo-1,3-thiazol-2-yl)-1H-1,2,4-triazol-5-yl]ethyl}-3-chloro-5-(trifluoromethyl)benzamide], for which, in the assay on Diabrotica balteata, the pest or weed control at 80 µg/disc, 250 g/ha was 100% and the pest or weed control at 160 µg/disc, 500 g/ha was found to be 100%. This molecule also displayed a mortality at 100 ppm in the assay with Ctenocephalides felis [1] of 100%. Besides, in the assay with Spodoptera frugiperda, the mortality at 100 g/ha amounted to 100% and the mortality at 500 g/ha was determined as 100%. Besides, the pest or weed control at 5 µg/cm2 with Ctenocephalides felis [2] worked out at 90%.
For the molecule `C[C@H](NC(=O)c1cc(F)c(F)c(F)c1)c1ncnn1-c1ccc(C#N)cn1` [Example I-020], the mortality at 20 mg/m2 in assay [3] is 90 to 100%. Also, the mortality at 4 mg/m2 in assay [4] lay within 90 to 100%. In addition, in the assay with Diabrotica balteata, the pest or weed control at 80 µg/disc, 250 g/ha turned out to be 100% and the pest or weed control at 160 µg/disc, 500 g/ha was 100%. In the assay with Ctenocephalides felis [1], the mortality at 100 ppm amounted to 100%. Besides, in the assay on Spodoptera frugiperda, the mortality at 500 g/ha worked out at 100%. In addition, in the assay on Boophilus microplus, the pest or weed control at 0.02 mg was found to be 100%.
`C[C@H](NC(=O)c1cc(Cl)cc(C(F)(F)F)c1)c1ncnn1-c1nccs1` [Example I-082, 3-chloro-N-{(1S)-1-[1-(1,3-thiazol-2-yl)-1H-1,2,4-triazol-5-yl]ethyl}-5-(trifluoromethyl)benzamide]: in the assay with Diabrotica balteata, the pest or weed control at 80 µg/disc, 250 g/ha worked out at 100% and the pest or weed control at 160 µg/disc, 500 g/ha came to 100%. In the assay with Spodoptera frugiperda, this molecule yielded a mortality at 100 g/ha of 100% and a mortality at 500 g/ha of 100%. Moreover, the pest or weed control at 5 µg/cm2 in the assay with Ctenocephalides felis [2] amounted to 90%. This molecule had a mortality at 500 g/ha in the assay with Nezara viridula of 100%.
For `C[C@H](NC(=O)c1cc(Br)cc(C(F)(F)F)c1)c1ncnn1-c1ccc(C#N)cn1` [Example I-081], the mortality at 4 ppm with Myzus persicae [5] came to 100%. Moreover, in the assay with Diabrotica balteata, the pest or weed control at 80 µg/disc, 250 g/ha is 100% and the pest or weed control at 160 µg/disc, 500 g/ha is 100%. In the assay on Spodoptera frugiperda, the mortality at 100 g/ha turned out to be 100% and the mortality at 500 g/ha came out at 100%. The pest or weed control at 5 µg/cm2 in the assay with Ctenocephalides felis [2] was 90%. In the assay with Nezara viridula, this molecule returned a mortality at 100 g/ha of 90% and a mortality at 500 g/ha of 100%.
In the assay on Myzus persicae [6], `C[C@H](NC(=O)c1cc(Cl)cc(C(F)(F)F)c1)c1ncnn1-c1ccc(NC(=O)C2(C#N)CC2)cn1` [Example I-076] yielded a mortality at 500 g/ha of 100%. In the assay with Myzus persicae [5], this molecule came in with a mortality at 4 ppm of 100%. In addition, in the assay on Diabrotica balteata, the pest or weed control at 80 µg/disc, 250 g/ha came out at 100% and the pest or weed control at 160 µg/disc, 500 g/ha is 100%. Further, the mortality at 100 ppm in the assay with Ctenocephalides felis [1] worked out at 90%. In the assay on Spodoptera frugiperda, the mortality at 100 g/ha was determined as 100% and the mortality at 500 g/ha came to 100%. Also, the pest or weed control at 0.02 mg in the assay on Boophilus microplus turned out to be 100%.
Turning to `CC[C@H](NC(=O)c1cc(Cl)cc(OC(F)(F)F)c1)c1ncnn1-c1ccc([N+](=O)[O-])cn1` [Example I-071], the pest or weed control at 5 µg/cm2 with Ctenocephalides felis [2] stood at 80%.
Regarding `COc1cc(Cl)cc(C(=O)N[C@@H](C)c2ncnn2-c2ccc(C#N)cn2)c1` [Example I-079], the pest or weed control at 80 µg/disc, 250 g/ha with Diabrotica balteata was determined as 100%. Besides, in the assay with Ctenocephalides felis [1], the mortality at 100 ppm turned out to be 100%. Moreover, the mortality at 500 g/ha was 100% in the assay on Spodoptera frugiperda and 90% in the assay on Nezara viridula. Also, the pest or weed control at 5 µg/cm2 in the assay with Ctenocephalides felis [2] turned out to be 90%. In addition, the mortality at 100 g/ha in the assay on Nezara viridula came out at 90%.
Turning to `C[C@H](NC(=O)c1cc(Cl)cc(C(F)(F)F)c1)c1ncnn1-c1ncc(C(F)(F)F)s1` [Example I-085], in the assay on Diabrotica balteata, the pest or weed control at 80 µg/disc, 250 g/ha is 100% and the pest or weed control at 160 µg/disc, 500 g/ha amounted to 100%. Moreover, the mortality at 100 ppm in the assay with Ctenocephalides felis [1] amounted to 100%. Moreover, in the assay on Spodoptera frugiperda, the mortality at 100 g/ha came to 100% and the mortality at 500 g/ha is 100%. The pest or weed control at 5 µg/cm2 in the assay on Ctenocephalides felis [2] was 100%. Further, in the assay on Nezara viridula, the mortality at 500 g/ha worked out at 100%.
Turning to `C[C@H](NC(=O)c1cc(Cl)cc(OC(F)(F)F)c1)c1ncnn1-c1ccc([N+](=O)[O-])cn1` [Example I-089], the mortality at 100 g/ha in the assay on Myzus persicae [6] (100 g/ha) was 90%; in the assay on Spodoptera frugiperda it was 100%; in the assay with Nezara viridula, 90%. Moreover, the mortality at 500 g/ha in the assay with Myzus persicae [6] came out at 90%; in the assay with Spodoptera frugiperda, 100%; in the assay on Nezara viridula, 100%. Besides, the mortality at 4 ppm in the assay on Myzus persicae [5] came to 90%. Besides, the pest or weed control at 80 µg/disc, 250 g/ha in the assay on Diabrotica balteata was 100%. Besides, the pest or weed control at 160 µg/disc, 500 g/ha with Diabrotica balteata stood at 100%. This molecule also displayed a mortality at 100 ppm in the assay on Ctenocephalides felis [1] of 100%. The pest or weed control at 5 µg/cm2 in the assay with Ctenocephalides felis [2] came out at 100%.
As to `C[C@H](NC(=O)c1cc(C(F)(F)F)cc(C(F)(F)F)c1)c1ncnn1-c1ncc(Cl)cc1F` [Example I-088], the mortality at 500 g/ha is 90% with Myzus persicae [6], 100% with Spodoptera frugiperda and 100% in the assay on Nezara viridula. The pest or weed control at 80 µg/disc, 250 g/ha in the assay with Diabrotica balteata is 100%. For the same molecule, the pest or weed control at 160 µg/disc, 500 g/ha in the assay with Diabrotica balteata came to 100%. In the assay with Ctenocephalides felis [1], this molecule returned a mortality at 100 ppm of 100%. Besides, the mortality at 100 g/ha was 100% with Spodoptera frugiperda and 90% in the assay with Nezara viridula. For the same molecule, the pest or weed control at 5 µg/cm2 in the assay on Ctenocephalides felis [2] was 100%.
In turn, `C[C@H](NC(=O)c1cc(Cl)cc(C(F)(F)F)c1)c1ncnn1-c1ccc(C(=O)NC2CC2)cn1` [Example I-061] displayed a mortality at 4 ppm in the assay on Myzus persicae [5] of 100%. For the same molecule, in the assay on Diabrotica balteata, the pest or weed control at 80 µg/disc, 250 g/ha came to 100% and the pest or weed control at 160 µg/disc, 500 g/ha came to 100%. In the assay on Ctenocephalides felis [1], this molecule displayed a mortality at 100 ppm of 100%. In the assay on Spodoptera frugiperda, this molecule displayed a mortality at 100 g/ha of 100% and a mortality at 500 g/ha of 100%. For the same molecule, the pest or weed control at 5 µg/cm2 in the assay on Ctenocephalides felis [2] was 100%. Besides, the mortality at 500 g/ha with Nezara viridula came to 100%. For the same molecule, the pest or weed control at 0.02 mg in the assay on Boophilus microplus is 100%.
